A short description of series [1]: Compound stability in human liver microsomes. The series is classed as in vitro ADME. To be noted: pH 7.4; for half-life at 5 μM: human liver microsomes 0.5 mg protein/mL, compound 5 μM, NADPH, 37° C., read-out: Human T1/2; for CLint scaled at 5 μM: human liver microsomes, in vivo CLint extrapolated. The protocol: (§1) Human or rat liver microsomes incubations were conducted in duplicate in polypropylene tubes. The typical incubation mixtures consisted of human or rat liver microsomes (0.5 mg protein/mL), compounds of interest (5 μM) and NADPH (1.0 mM) in a total volume of 200 μL potassium phosphate buffer (PBS, 100 mM, pH 7.4). Compounds were dissolved in DMSO and diluted with PBS such that the final concentration of DMSO was 0.05%. The enzymatic reactions were commenced with the addition of […] after a 3-min preincubation and incubated in a water bath open to the air at 37° C. Reactions were terminated at various time points (0, 5, 10, 15, 30, 60 min) by adding equal volume of ice-cold acetonitrile. The samples were stored at […] until LC/MS/MS assays.
(§2) The concentrations of compounds in the incubation mixtures of human or rat liver microsomes were determined by a LC/MS/MS method. The ranges of the linearity in the concentration range were determined for each tested compounds.
(§3) A parallel incubation was performed using denatured microsomes as the negative control, and reactions were terminated at various time points (0, 15, 60 min) after incubation at 37° C.
(§4) Dextromethorphan (70 μM) was selected as the positive control, and reactions were terminated at various time points (0, 5, 10, 15, 30, 60 min) after incubation at 37° C. Both positive and negative control samples were included in each assay to ensure the integrity of the microsomal incubation system.
(§5) The concentrations of compounds in human or rat liver microsome incubations were plotted as a percentage of the relevant zero time point control for each reaction. The in vivo CLint were extrapolated (ref.: Naritomi, Y.; Terashita, S.; Kimura, S.; Suzuki, A.; Kagayama, A.; and Sugiyama, Y.; Prediction of human hepatic clearance from in vivo animal experiments and in vitro metabolic studies with liver microsomes from animals and humans. Drug Metab. Dispos., 2001, 29: 1316-1324).

Series [2] can be described thus: Compound stability in rat liver microsomes. In kind it is in vitro ADME. To be noted: pH 7.4; for half-life at 5 μM: rat liver microsomes 0.5 mg protein/mL, compound 5 μM, NADPH, 37° C., read-out: Rat T1/2; for CLint scaled at 5 μM: rat liver microsomes, in vivo CLint extrapolated. The protocol: as §1, §2, §3, §4, §5
A short description of series [3]: Pharmacokinetics after intravenous and oral administration in rats. In kind it is in vivo. To be noted: iv dosing, 1 mg/kg; for AUC(0-t) / half-life / Vd: rat, plasma; for Vd: read-out: Vss. As for the experimental part:
The LC/MS/MS system used in the analysis consists of an Agilent 1200 Series vacuum degasser, binary pump, well-plate autosampler, thermostatted column compartment, the Agilent G6430 Triple Quadrupole Mass Spectrometer with an electrosprayionization (ESI) source. Quantitative analysis was carried out using MRM mode. The parameters for MRM transitions are in the Table A.
An Agilent XDB-C18, 2.1×30 mm, 3.5 μM column was used for the analysis. 5 μL of the samples were injected. Analysis condition: The mobile phase was 0.1% formic acid in water (A) and 0.1% formic acid in methanol (B). The flow rate was 0.4 mL/min. And the gradient of Mobile phase was in the Table B.
Alternatively, an Agilent 6330 series LC/MS/MS spectrometer equipped with G1312A binary pumps, a G1367A autosampler and a G1314C UV detector were used in the analysis. An ESI source was used on the LC/MS/MS spectrometer. The analysis was done in positive ion mode as appropriate and the MRM transition for each analyte was optimized using standard solution. A Capcell MP-C18 100×4.6 mm I.D., […] column (Phenomenex, Torrance, Calif., USA) was used during the analysis. The mobile phase was 5 mM ammonia acetate, 0.1% MeOH in water (A): 5 mM ammonia acetate, 0.1% MeOH in acetonitrile (B) (70:30, v/v). The flow rate was 0.6 mL/min. Column was maintained at ambient temperature. 20 μL of the samples were injected.
The compounds disclosed herein are assessed in pharmacokinetic studies in mice, rats, dogs or monkeys. The compounds are administered as a water solution, 2% HPMC+1% TWEEN®80 in water solution, 5% DMSO+5% solutol in saline, 4% MC suspension or capsule. For the intravenous administration, the animals are generally given at 1 or 2 mg/kg dose. For the oral (p.o.) dosing, mice and rats are generally given 5 or 10 mg/kg dose, and dogs and monkeys are generally given 10 mg/kg dose. The blood samples (0.3 mL) are drawn at 0.25, 0.5, 1.0, 2.0, 3.0, 4.0, 6.0, 8.0, 12 and 24 h time points or 0.083, 0.25, 0.5, 1.0, 2.0, 4.0, 6.0, 8.0 and 24 h time points and centrifuged at 3,000 or 4000 rpm for 2 to 10 min. The plasma solutions are collected, and stored at −20° C. or −70° C. until analyzed by LC/MS/MS as described above.

The next series concerns the target T1, JAK1 (h) (Homo sapiens, UniProt P23458).
T1 construct: purchased Millipore UK Ltd (assays run there as a service)
The series can be described thus: JAK1 kinase assay. The series is classed as biochemical. As for the experimental part:
(§6) Kinase assays can be performed by measurement of incorporation of γ-^33P ATP into immobilized myelin basic protein (MBP). High binding white 384 well plates (Greiner) are coated with MBP (Sigma #M-1891) by incubation of 60 μL/well of 20 μg/mL MBP in Tris-buffered saline (TBS; 50 mM Tris pH 8.0, 138 mM NaCl, 2.7 mM KCl) for 24 h at 4° C. Plates are washed 3× with 100 μL TBS. Kinase reactions are carried out in a total volume of 34 μL in kinase buffer (5 mM Hepes pH 7.6, 15 mM NaCl, 0.01% bovine gamma globulin (Sigma #I-5506), 10 mM MgCl2, 1 mM DTT, 0.02% TritonX-100). Compound dilutions are performed in DMSO and added to assay wells to a final DMSO concentration of 1%. Each data point is measured in duplicate, and at least two duplicate assays are performed for each individual compound determination. Enzyme is added to final concentrations of 10 nM or 20 nM, for example. A mixture of unlabeled ATP and γ-^33P ATP is added to start the reaction (2×10^6 cpm of γ-^33P ATP per well (3000 Ci/mmole) and 10 μM unlabeled ATP, typically. The reactions are carried out for 1 h at room temperature with shaking Plates are washed 7× with TBS, followed by the addition of 50 μL/well scintillation fluid (Wallac). Plates are read using a Wallac Trilux counter. This is only one format of such assays; various other formats are possible, as known to one skilled in the art.
(§7) The above assay procedure can be used to determine the IC50 for inhibition and/or the inhibition constant, Ki. The IC50 is defined as the concentration of compound required to reduce the enzyme activity by 50% under the condition of the assay. The IC50 value is estimated by preparing a 10 point curve using a ½ log dilution series (for example, a typical curve may be prepared using the following compound concentrations: 3 μM, 1 μM, 0.3 μM, 0.1 μM, 0.03 μM, 0.01 μM, 0.003 μM, 0.001 μM, 0.0003 μM and 0 μM).
JAK1 (h) is incubated with 20 mM Tris/HCl pH 7.5, 0.2 mM EDTA, 500 μM […], 10 mM MgAcetate and [γ-^33P-ATP] (specific activity approx. 500 cpm/pmol, concentration as required).
(§8) The kinase assays described herein were performed at Millipore UK Ltd, Dundee Technology Park, Dundee DD2 1SW, UK.

Another series has as its target T2, JAK2 (h) (Homo sapiens, UniProt O60674).
T2 construct: purchased Millipore UK Ltd (assays run there as a service)
Description: JAK2 kinase assay. The series is classed as biochemical. The protocol: as §6, §7
(specific activity approx. 500 cpm/pmol, concentration as required).
as §8

T1 sequence (P23458 whole entry): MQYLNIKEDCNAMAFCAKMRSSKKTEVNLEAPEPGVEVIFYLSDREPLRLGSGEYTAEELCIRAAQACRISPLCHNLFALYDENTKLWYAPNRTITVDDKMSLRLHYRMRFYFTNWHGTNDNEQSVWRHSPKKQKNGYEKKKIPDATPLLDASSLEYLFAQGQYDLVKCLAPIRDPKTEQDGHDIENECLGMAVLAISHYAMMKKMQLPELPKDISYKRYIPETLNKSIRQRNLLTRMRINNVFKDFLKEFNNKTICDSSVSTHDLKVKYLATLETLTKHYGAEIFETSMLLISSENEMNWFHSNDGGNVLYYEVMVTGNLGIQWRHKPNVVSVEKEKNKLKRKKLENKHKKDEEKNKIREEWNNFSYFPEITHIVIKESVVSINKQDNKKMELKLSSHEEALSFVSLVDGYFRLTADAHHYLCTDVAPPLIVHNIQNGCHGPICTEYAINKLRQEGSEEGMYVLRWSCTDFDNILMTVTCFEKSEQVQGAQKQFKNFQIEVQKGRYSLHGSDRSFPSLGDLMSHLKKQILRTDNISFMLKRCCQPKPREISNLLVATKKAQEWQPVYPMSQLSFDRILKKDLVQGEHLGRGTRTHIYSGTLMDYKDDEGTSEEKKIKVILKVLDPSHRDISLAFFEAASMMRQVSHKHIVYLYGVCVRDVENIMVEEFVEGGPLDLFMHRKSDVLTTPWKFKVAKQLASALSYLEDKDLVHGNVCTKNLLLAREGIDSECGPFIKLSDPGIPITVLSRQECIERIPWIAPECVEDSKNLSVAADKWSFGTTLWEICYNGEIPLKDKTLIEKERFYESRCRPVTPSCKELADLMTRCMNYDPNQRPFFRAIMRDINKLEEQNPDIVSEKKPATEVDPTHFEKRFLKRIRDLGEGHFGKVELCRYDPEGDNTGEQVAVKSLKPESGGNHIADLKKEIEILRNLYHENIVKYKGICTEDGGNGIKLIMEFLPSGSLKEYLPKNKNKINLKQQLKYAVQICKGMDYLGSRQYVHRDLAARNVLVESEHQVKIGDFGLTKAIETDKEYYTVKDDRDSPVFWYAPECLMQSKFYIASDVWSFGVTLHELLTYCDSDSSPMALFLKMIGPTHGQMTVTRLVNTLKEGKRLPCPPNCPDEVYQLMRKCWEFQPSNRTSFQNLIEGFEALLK
T2 sequence (O60674 whole entry): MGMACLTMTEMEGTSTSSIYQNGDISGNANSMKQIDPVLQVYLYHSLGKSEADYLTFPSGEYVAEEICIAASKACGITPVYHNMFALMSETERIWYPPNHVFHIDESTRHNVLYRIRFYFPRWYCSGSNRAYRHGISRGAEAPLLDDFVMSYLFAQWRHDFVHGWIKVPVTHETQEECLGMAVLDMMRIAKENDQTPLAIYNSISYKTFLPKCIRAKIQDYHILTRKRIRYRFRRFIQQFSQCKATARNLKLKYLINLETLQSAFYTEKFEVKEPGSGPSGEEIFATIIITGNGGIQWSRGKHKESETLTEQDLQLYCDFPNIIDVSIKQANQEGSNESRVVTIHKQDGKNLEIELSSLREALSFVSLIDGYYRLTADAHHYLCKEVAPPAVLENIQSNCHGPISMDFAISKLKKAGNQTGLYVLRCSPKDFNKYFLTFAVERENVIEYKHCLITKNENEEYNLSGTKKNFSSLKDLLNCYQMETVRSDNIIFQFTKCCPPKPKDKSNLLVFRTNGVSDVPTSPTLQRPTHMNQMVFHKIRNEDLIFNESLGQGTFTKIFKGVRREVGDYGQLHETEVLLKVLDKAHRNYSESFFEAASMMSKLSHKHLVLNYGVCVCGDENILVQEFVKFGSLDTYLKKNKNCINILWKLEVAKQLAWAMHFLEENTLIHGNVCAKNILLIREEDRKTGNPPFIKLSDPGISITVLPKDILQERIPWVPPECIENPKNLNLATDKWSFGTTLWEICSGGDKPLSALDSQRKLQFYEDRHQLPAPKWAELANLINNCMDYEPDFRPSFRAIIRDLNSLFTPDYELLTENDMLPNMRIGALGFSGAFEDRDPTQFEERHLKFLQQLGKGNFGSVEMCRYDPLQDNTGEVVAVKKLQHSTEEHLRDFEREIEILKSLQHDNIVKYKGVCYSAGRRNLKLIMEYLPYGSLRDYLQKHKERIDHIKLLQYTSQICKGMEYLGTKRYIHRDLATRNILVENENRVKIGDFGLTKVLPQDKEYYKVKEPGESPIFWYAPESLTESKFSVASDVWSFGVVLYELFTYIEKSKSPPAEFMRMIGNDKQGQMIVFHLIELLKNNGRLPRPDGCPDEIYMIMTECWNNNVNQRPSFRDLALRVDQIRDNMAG

One may read the CLint scaled as a measure of how fast metabolising enzymes remove a compound, apart from limits set by blood flow. As usually defined, the AUC(0-t) is the area under the concentration-time curve up to a stated or last time point. With `Cc1c2ccc(Nc3nccc(N(C)C4CCC5(CC4)CCN(C(=O)CC#N)C5)n3)cc2nn1C` (stereo not drawn) [Ex. 2, 3-(8-((2-((2,3-dimethyl-2H-indazol-6-yl)amino)pyrimidin-4-yl)(methyl)amino)-2-azaspiro[4.5]decan-2-yl)-3-oxopropanenitrile], in series [1], the half-life at 5 μM was 20.3 min and the CLint scaled at 5 μM was 85.5 mL/min/kg. Moreover, in series [2], the half-life at 5 μM was determined as 22.2 min and the CLint scaled at 5 μM is 112 mL/min/kg. In series [3], the Cl/F came to 49.8 mL/min/kg, the AUC(0-t) worked out at 332 ng·h/mL, the half-life was 109 min and the Vd stood at 3.59 L/kg.
Broadly, the IC50 is the concentration needed to halve the response being measured. A lower IC50 goes with inhibition by little substance. For `Cc1c2ccc(Nc3ncc(Cl)c(NC4CCC5(CC4)CCN(C(=O)CC#N)CC5)n3)cc2nn1C` [Ex. 6, 3-(9-((5-chloro-2-((2,3-dimethyl-2H-indazol-6-yl)amino)pyrimidin-4-yl)amino)-3-azaspiro[5.5]undecan-3-yl)-3-oxopropanenitrile], in series [1], the half-life at 5 μM worked out at 79.8 min and the intrinsic metabolic clearance (CLint scaled) at 5 μM was 21.8 mL/min/kg. Further, in series [2], the half-life at 5 μM was found to be 41 min and the CLint scaled at 5 μM was 60.6 mL/min/kg. In series [3], the Cl/F is 22.3 mL/min/kg, the AUC(0-t) came to 743 ng·h/mL, the half-life was 78.6 min and the Vd stood at 2.55 L/kg. The molecule further had an IC50 against JAK1 (h) of 0.6 nM. Also, on JAK2 (h), the midpoint of inhibition, the IC50, lay at 2 nM.
As for `Cc1cnc(Nc2ccc3c(C)n(C)nc3c2)nc1NC1CC2CN(C(=O)CC#N)CC2C1` (stereo not drawn) [Ex. 9, 3-(5-((2-((2,3-dimethyl-2H-indazol-6-yl)amino)-5-methylpyrimidin-4-yl)amino)hexahydrocyclopenta[c]pyrrol-2(1H)-yl)-3-oxopropanenitrile], in series [1], the half-life at 5 μM stood at 31.2 min and the CLint scaled at 5 μM is 55.7 mL/min/kg. Besides, in series [2], the half-life at 5 μM came to 52.7 min and the CLint scaled at 5 μM was 47.1 mL/min/kg. At JAK1 (h), this molecule registered an IC50 of 2 nM.
For `Cc1cnc(Nc2ccc3c(C)n(C)nc3c2)nc1NC1CC2CN(S(C)(=O)=O)CC2C1` (stereo not drawn) [Ex. 10, N^2-(2,3-dimethyl-2H-indazol-6-yl)-5-methyl-N^4-(2-(methylsulfonyl)octahydrocyclopenta[c]pyrrol-5-yl)pyrimidine-2,4-diamine], in series [1], the half-life at 5 μM is 20 min and the CLint scaled at 5 μM was 87 mL/min/kg. In addition, in series [2], the half-life at 5 μM was determined as 50.7 min and the intrinsic metabolic clearance (CLint scaled) at 5 μM is 49 mL/min/kg. In series [3], the Cl/F stood at 33.2 mL/min/kg, the AUC(0-t) is 501 ng·h/mL, the half-life is 43.8 min and the Vd was 1.75 L/kg. On JAK1 (h), the IC50 was found to be 7 nM.
With `CC(=O)N1CC2CC(Nc3nc(Nc4ccc5c(C)n(C)nc5c4)ncc3C)CC2C1` (stereo not drawn) [Ex. 11, 1-(5-((2-((2,3-dimethyl-2H-indazol-6-yl)amino)-5-methylpyrimidin-4-yl)amino)hexahydrocyclopenta[c]pyrrol-2(1H)-yl)ethanone], the IC50 on JAK1 (h) stood at 57 nM.
`Cc1cnc(Nc2ccc3c(C)n(C)nc3c2)nc1NC1CCC2(CC1)CCN(C(=O)CC#N)CC2` [Ex. 12, 3-(9-((2-((2,3-dimethyl-2H-indazol-6-yl)amino)-5-methylpyrimidin-4-yl)amino)-3-azaspiro[5.5]undecan-3-yl)-3-oxopropanenitrile]: in series [1], the half-life at 5 μM worked out at 166 min and the CLint scaled at 5 μM is 10.4 mL/min/kg. In series [2], the half-life at 5 μM is 57.8 min and the CLint scaled at 5 μM is 43 mL/min/kg. Further, in series [3], the Cl/F was 114 mL/min/kg, the AUC(0-t) worked out at 144 ng·h/mL, the half-life is 54 min and the Vd turned out to be 5.71 L/kg. On JAK1 (h), half-maximal inhibition (IC50) was put at 1 nM.
On to `CC(=O)N1CCC2(CCC(Nc3nc(Nc4ccc5c(C)n(C)nc5c4)ncc3C)CC2)CC1` [Ex. 13, 1-(9-((2-((2,3-dimethyl-2H-indazol-6-yl)amino)-5-methylpyrimidin-4-yl)amino)-3-azaspiro[5.5]undecan-3-yl)ethanone], for which, in series [1], the half-life at 5 μM was determined as 51.7 min and the CLint scaled at 5 μM was 33.6 mL/min/kg. In series [2], the half-life at 5 μM amounted to 27.9 min and the CLint scaled at 5 μM is 89.2 mL/min/kg. In series [3], the Cl/F was 75.5 mL/min/kg, the AUC(0-t) is 238 ng·h/mL, the half-life is 38.4 min and the Vd amounted to 3.5 L/kg. The same molecule had an IC50 at JAK1 (h) of 2 nM.

The values above are taken from patent publication US9399637B2, “Substituted heteroaryl compounds and methods of use” (Calitor Sciences, LLC, priority 2014, dated 2016).
